According to US20240360134A1, “PYRAZOLOPYRIMIDINES AND THEIR USES AS PDGFR INHIBITORS” (priority 2021, published 2024):

Tests used:
[1] = target: VEGFR2, unphosphorylated (Homo sapiens (Human), UniProt P35968); assay: VEGFR ADP GLO assay; assay type: biochemical; conditions: 5 nM VEGFR2, 1.2 mM ATP, 1 mg/mL Srctide, 180 min
How it was run: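 Unphosphorylated kinase (10 nM 2× solution) pre-incubated 30 min at RT with compounds (11-point, 3-fold, top 10 µM), then reacted 180 min with srctide and ATP (2×: 2 mg/mL, 2.4 mM) in HEPES pH 7.5 buffer. ADP read by luminescence. IC50 from 4-parameter fit, normalized to DMSO and 1 µM TAK-593.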

[2] = target: PDGFRβ (Rattus norvegicus (Rat), UniProt Q05030); assay: PDGFRβ Cellular Assay (PDGFRb P-Y751 HTRF, PDGF-BB stimulated A10 cells); assay type: cell-based; conditions: A10 cells, 3 hours compound, 15 ng/mL PDGFbb for 10 minutes; read-out: PDGFR Cellular IC50
Sequence of PDGFRβ (Q05030 whole entry, looked up): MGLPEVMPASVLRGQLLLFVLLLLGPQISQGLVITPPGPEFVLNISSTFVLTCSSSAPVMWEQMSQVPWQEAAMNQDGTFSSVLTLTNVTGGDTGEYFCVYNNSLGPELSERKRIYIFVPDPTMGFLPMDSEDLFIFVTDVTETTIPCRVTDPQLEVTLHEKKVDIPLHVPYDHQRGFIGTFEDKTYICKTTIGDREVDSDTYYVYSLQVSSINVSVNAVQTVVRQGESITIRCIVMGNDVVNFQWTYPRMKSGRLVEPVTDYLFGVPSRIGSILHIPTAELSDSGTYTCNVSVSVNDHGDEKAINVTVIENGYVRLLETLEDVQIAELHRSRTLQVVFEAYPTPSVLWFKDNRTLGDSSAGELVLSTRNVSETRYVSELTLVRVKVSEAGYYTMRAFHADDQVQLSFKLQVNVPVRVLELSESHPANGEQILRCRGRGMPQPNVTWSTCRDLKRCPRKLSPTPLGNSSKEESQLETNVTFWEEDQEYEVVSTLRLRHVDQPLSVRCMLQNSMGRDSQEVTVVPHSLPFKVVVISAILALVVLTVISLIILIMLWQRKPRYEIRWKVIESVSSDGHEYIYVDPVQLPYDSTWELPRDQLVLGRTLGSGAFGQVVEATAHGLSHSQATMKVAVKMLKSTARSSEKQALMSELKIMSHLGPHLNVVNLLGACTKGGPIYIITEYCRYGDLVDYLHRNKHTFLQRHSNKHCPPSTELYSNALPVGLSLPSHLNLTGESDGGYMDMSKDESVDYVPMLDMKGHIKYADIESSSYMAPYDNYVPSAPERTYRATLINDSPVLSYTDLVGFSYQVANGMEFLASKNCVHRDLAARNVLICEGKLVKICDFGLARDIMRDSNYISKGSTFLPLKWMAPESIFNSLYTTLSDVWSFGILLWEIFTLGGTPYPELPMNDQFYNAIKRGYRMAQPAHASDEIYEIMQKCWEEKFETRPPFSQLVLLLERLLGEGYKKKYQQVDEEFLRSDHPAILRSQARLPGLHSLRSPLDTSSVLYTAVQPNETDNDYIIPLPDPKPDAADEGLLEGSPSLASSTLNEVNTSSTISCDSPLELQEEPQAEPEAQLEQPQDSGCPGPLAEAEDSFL
How it was run: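 Rat A10 cells plated overnight were treated with compound for 3 h, stimulated with rat PDGF-BB (working stock 100 ng/mL in 10% FBS medium) for 10 min, then lysed.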

[3] = target: His6-TEV-PDGFRβ (557-1016) (Homo sapiens (Human), UniProt P09619); assay: PDGFRβ HTRF Assay; assay type: biochemical; conditions: 800 μM ATP, 0.5 μM TK-substrate biotin peptide, 30 min pre-incubation, 3 hours reaction; read-out: PDGFR HTRF IC50
Sequence of His6-TEV-PDGFRβ (557-1016) (P09619 whole entry, looked up): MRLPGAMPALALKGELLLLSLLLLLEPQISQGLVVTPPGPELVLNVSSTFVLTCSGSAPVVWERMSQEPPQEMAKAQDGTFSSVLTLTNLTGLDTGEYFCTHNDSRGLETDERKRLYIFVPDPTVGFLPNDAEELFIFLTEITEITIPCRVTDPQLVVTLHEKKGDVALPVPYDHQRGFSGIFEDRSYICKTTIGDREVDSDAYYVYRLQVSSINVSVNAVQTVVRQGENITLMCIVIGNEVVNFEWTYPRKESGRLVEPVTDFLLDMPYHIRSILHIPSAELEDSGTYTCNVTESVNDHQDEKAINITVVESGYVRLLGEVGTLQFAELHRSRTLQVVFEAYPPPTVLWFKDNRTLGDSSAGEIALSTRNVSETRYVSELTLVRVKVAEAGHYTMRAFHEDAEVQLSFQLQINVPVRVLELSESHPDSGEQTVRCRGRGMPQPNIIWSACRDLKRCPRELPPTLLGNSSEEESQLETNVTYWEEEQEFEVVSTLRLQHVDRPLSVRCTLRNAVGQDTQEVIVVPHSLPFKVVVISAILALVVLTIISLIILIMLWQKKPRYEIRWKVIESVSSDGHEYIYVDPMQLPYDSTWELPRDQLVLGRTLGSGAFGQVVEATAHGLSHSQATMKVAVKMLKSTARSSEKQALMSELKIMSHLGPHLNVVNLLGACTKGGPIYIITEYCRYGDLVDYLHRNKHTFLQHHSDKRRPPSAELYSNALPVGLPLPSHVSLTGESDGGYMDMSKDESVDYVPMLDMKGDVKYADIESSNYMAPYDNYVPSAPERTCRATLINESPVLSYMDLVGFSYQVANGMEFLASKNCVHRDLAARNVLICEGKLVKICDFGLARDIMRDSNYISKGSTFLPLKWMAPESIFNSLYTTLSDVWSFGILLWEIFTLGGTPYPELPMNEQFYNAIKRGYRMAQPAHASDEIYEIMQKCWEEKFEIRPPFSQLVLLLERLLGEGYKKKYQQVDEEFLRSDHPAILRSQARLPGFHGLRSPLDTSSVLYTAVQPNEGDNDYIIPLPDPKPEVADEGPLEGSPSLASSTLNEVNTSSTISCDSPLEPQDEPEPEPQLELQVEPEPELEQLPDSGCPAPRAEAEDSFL

[4] = target: Tb-labeled inactive PDGFRβ (Homo sapiens (Human), UniProt P09619); assay: biochemical; assay type: binding; conditions: read-out: PDGFR Lantha IC50
Sequence of Tb-labeled inactive PDGFRβ (P09619 whole entry, looked up): as above

Sequence of VEGFR2, unphosphorylated (P35968 whole entry, looked up): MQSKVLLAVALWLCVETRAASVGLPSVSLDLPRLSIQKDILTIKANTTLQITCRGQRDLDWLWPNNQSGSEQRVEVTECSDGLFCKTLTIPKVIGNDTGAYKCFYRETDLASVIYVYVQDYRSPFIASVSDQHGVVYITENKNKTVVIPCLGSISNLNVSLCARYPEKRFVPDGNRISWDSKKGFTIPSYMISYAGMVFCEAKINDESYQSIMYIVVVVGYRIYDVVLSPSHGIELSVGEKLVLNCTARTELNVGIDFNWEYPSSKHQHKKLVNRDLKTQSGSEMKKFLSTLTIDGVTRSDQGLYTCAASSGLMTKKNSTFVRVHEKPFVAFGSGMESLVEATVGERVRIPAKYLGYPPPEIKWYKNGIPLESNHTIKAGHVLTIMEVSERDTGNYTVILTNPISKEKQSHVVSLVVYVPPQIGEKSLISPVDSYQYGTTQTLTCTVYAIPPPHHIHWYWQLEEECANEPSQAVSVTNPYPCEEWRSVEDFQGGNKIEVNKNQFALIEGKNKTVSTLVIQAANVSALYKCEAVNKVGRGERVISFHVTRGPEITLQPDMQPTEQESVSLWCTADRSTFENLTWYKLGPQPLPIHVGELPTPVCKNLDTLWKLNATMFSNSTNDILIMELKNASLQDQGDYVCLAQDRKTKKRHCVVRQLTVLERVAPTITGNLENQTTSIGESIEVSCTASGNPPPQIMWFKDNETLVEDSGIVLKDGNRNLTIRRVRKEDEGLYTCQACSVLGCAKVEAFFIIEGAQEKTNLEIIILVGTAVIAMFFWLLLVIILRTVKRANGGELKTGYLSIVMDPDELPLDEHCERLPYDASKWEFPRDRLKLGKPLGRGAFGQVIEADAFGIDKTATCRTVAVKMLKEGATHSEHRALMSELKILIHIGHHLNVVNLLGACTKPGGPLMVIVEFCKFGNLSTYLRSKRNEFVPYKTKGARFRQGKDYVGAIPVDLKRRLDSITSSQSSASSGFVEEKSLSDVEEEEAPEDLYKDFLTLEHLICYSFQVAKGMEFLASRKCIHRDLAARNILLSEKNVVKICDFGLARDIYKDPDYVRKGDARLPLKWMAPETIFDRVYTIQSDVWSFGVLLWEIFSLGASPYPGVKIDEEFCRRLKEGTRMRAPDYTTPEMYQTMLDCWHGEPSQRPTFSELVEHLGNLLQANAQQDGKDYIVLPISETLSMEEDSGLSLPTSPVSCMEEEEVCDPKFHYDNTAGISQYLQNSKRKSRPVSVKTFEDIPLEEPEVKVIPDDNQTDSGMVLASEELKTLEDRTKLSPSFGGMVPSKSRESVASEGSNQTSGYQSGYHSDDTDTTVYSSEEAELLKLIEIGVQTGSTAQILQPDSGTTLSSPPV

SMILES	IC50 [1] [nM]	IC50 [2] [nM]	IC50 [3] [nM]	IC50 [4] [nM]
Cc1ncc(C(=O)NCCN2CCC(F)(F)CC2)cc1Nc1nn(C)c2nc(Nc3cncnc3)ncc12 [Example 1, N-(2-(4,4-difluoropiperidin-1-yl)ethyl)-6-methyl-5-((1-methyl-6-(pyrimidin-5-ylamino)-1H-pyrazolo[3,4-d]pyrimidin-3-yl)amino)nicotinamide]	> 7500	12	0.65	3.3
Cc1ncc(C(=O)NCCN2CCCC2(C)C)cc1Nc1nn(C)c2nc(Nc3cncnc3)ncc12 [Example 27, N-(2-(2,2-dimethylpyrrolidin-1-yl)ethyl)-6-methyl-5-((1-methyl-6-(pyrimidin-5-ylamino)-1H-pyrazolo[3,4-d]pyrimidin-3-yl)amino)nicotinamide]	> 10000	31.2	0.7	4
Cc1ncc(C(=O)NCCN2C3CCCC2CCC3)cc1Nc1nn(C)c2nc(Nc3cnn(C)c3)ncc12 [Example 89, N-(2-(9-azabicyclo[3.3.1]nonan-9-yl)ethyl)-6-methyl-5-((1-methyl-6-((1-methyl-1H-pyrazol-4-yl)amino)-1H-pyrazolo[3,4-d]pyrimidin-3-yl)amino)nicotinamide]	4090	33.3	0.33	2.8
Cc1ncc(C(=O)NCCN2CCCC2(C)C)cc1Nc1nn(C)c2nc(Nc3ccnc(N)c3)ncc12 [Example 41, 5-((6-((2-aminopyridin-4-yl)amino)-1-methyl-1H-pyrazolo[3,4-d]pyrimidin-3-yl)amino)-N-(2-(2,2-dimethylpyrrolidin-1-yl)ethyl)-6-methylnicotinamide]	> 7500	115	0.36	3.2
Cn1nc(Nc2cc(C(=O)NCCN3CCCC3(C)C)ccc2F)c2cnc(Nc3ccncn3)nc21 [Example 52, N-(2-(2,2-dimethylpyrrolidin-1-yl)ethyl)-4-fluoro-3-((1-methyl-6-(pyrimidin-4-ylamino)-1H-pyrazolo[3,4-d]pyrimidin-3-yl)amino)benzamide]	> 2500	67	4.71	160
Cc1ncc(C(=O)NCCN2CCCC2(C)C)cc1Nc1nn(C)c2nc(Nc3ccnn3C)ncc12 [Example 157, N-(2-(2,2-dimethylpyrrolidin-1-yl)ethyl)-6-methyl-5-((1-methyl-6-((1-methyl-1H-pyrazol-5-yl)amino)-1H-pyrazolo[3,4-d]pyrimidin-3-yl)amino)nicotinamide]	> 7500	110	3.39	32.9
Cc1ccc(C(=O)NCCN2CCC[C@@H]2C)cc1Nc1nn(C)c2nc(Nc3cnn(C)c3)ncc12 [Example 65, (S)-4-methyl-3-((1-methyl-6-((1-methyl-1H-pyrazol-4-yl)amino)-1H-pyrazolo[3,4-d]pyrimidin-3-yl)amino)-N-(2-(2-methylpyrrolidin-1-yl)ethyl)benzamide]	2400	10	0.22	2.1
Cc1ncc(NC(=O)NCCN2CCCC2(C)C)cc1Nc1nn(C)c2nc(Nc3cncnc3)ncc12 [Example 16, 1-(2-(2,2-dimethylpyrrolidin-1-yl)ethyl)-3-(6-methyl-5-((1-methyl-6-(pyrimidin-5-ylamino)-1H-pyrazolo[3,4-d]pyrimidin-3-yl)amino)pyridin-3-yl)urea]	> 7500	1480	1.36	18.5
Cc1ncc(C(=O)NCCN2CCCC23CCC3)cc1Nc1nn(C)c2nc(Nc3cnn(C)c3)ncc12 [Example 151, N-(2-(5-azaspiro[3.4]octan-5-yl)ethyl)-6-methyl-5-((1-methyl-6-((1-methyl-1H-pyrazol-4-yl)amino)-1H-pyrazolo[3,4-d]pyrimidin-3-yl)amino)nicotinamide]	2960	4.8	0.29	1.7
Cc1ncc(C(=O)NCCC2CCCCC2)cc1Nc1nn(C)c2nc(Nc3ccc(CC(=O)O)cc3)ncc12 [Example 104, 2-(4-((3-((5-((2-cyclohexylethyl)carbamoyl)-2-methylpyridin-3-yl)amino)-1-methyl-1H-pyrazolo[3,4-d]pyrimidin-6-yl)amino)phenyl)acetic acid]	77.2	2360	0.44	2.4
Cc1ncc(C(=O)NCCN2C[C@H](C)O[C@@H](C)C2)cc1Nc1nn(C)c2nc(Nc3cncnc3)ncc12 [Example 114, N-(2-((2S,6S)-2,6-dimethylmorpholino)ethyl)-6-methyl-5-((1-methyl-6-(pyrimidin-5-ylamino)-1H-pyrazolo[3,4-d]pyrimidin-3-yl)amino)nicotinamide]	> 7500	72.9	0.88	9.1
COCCCN(CCNC(=O)c1cnc(C)c(Nc2nn(C)c3nc(Nc4cnn(C)c4)ncc23)c1)C1CCC1 [Example 93, N-(2-(cyclobutyl(3-methoxypropyl)amino)ethyl)-6-methyl-5-((1-methyl-6-((1-methyl-1H-pyrazol-4-yl)amino)-1H-pyrazolo[3,4-d]pyrimidin-3-yl)amino)nicotinamide]	> 7500	10.6	0.44	3.8
Cc1ncc(NC(=O)CN2CCCC2(C)C)cc1Nc1nn(C)c2nc(Nc3cnn(C)c3)ncc12 [Example 70, 2-(2,2-dimethylpyrrolidin-1-yl)-N-(6-methyl-5-((1-methyl-6-((1-methyl-1H-pyrazol-4-yl)amino)-1H-pyrazolo[3,4-d]pyrimidin-3-yl)amino)pyridin-3-yl)acetamide]	6170	0.9	0.2	1.8
COCCn1cc(Nc2ncc3c(Nc4cc(NC(=O)CN5CC(C)(C)C5)cnc4C)nn(C)c3n2)cn1 [Example 126, 2-(3,3-dimethylazetidin-1-yl)-N-(5-((6-((1-(2-methoxyethyl)-1H-pyrazol-4-yl)amino)-1-methyl-1H-pyrazolo[3,4-d]pyrimidin-3-yl)amino)-6-methylpyridin-3-yl)acetamide]	6880	6	0.33	2.1
Cc1ncc(C(=O)NCCN2CCCC2(C)C)cc1Nc1nn(C)c2nc(Nc3ccncc3)ncc12 [Example 28, N-(2-(2,2-dimethylpyrrolidin-1-yl)ethyl)-6-methyl-5-((1-methyl-6-(pyridin-4-ylamino)-1H-pyrazolo[3,4-d]pyrimidin-3-yl)amino)nicotinamide]	~9180	39.4	0.5	3.8
COC1CN(CC(=O)Nc2cnc(C)c(Nc3nn(C)c4nc(Nc5cnn(C)c5)ncc34)c2)C1 [Example 137, 2-(3-methoxyazetidin-1-yl)-N-(6-methyl-5-((1-methyl-6-((1-methyl-1H-pyrazol-4-yl)amino)-1H-pyrazolo[3,4-d]pyrimidin-3-yl)amino)pyridin-3-yl)acetamide]	> 7500	20.9	0.49	4.5
Cn1cc(Nc2ncc3c(Nc4cc(C(=O)NCCN5CCC(F)(F)CC5)ccc4F)nn(C)c3n2)cn1 [Example 63, N-(2-(4,4-difluoropiperidin-1-yl)ethyl)-4-fluoro-3-((1-methyl-6-((1-methyl-1H-pyrazol-4-yl)amino)-1H-pyrazolo[3,4-d]pyrimidin-3-yl)amino)benzamide]	582	1.6	0.2	0.89
Cc1ncc(C(=O)NCCN2CCC[C@@H]2C)cc1Nc1nn(C)c2nc(Nc3cnn(C)c3C)ncc12 [Example 155, (S)-5-((6-((1,5-dimethyl-1H-pyrazol-4-yl)amino)-1-methyl-1H-pyrazolo[3,4-d]pyrimidin-3-yl)amino)-6-methyl-N-(2-(2-methylpyrrolidin-1-yl)ethyl)nicotinamide]	> 7500	169	1.98	15.5
COC(=O)C1(c2cccc(Nc3ncc4c(Nc5cc(C(=O)NCCN6CCCC6(C)C)cnc5C)nn(C)c4n3)c2)CC1 [Example 37, methyl 1-(3-((3-((5-((2-(2,2-dimethylpyrrolidin-1-yl)ethyl)carbamoyl)-2-methylpyridin-3-yl)amino)-1-methyl-1H-pyrazolo[3,4-d]pyrimidin-6-yl)amino)phenyl)cyclopropanecarboxylate]	5560	64.2	0.79	6.5
Cc1ncc(C(=O)NCCN2CCCC2(C)C)cc1Nc1nn(C)c2nc(Nc3cccnc3)ncc12 [Example 42, N-(2-(2,2-dimethylpyrrolidin-1-yl)ethyl)-6-methyl-5-((1-methyl-6-(pyridin-3-ylamino)-1H-pyrazolo[3,4-d]pyrimidin-3-yl)amino)nicotinamide]	> 10000	33.2	0.6	3.9
Cc1nn(C)cc1Nc1ncc2c(Nc3cc(C(=O)NCCN4CCC(C)(C)C4)cnc3C)nn(C)c2n1 [Example 159, 5-((6-((1,3-dimethyl-1H-pyrazol-4-yl)amino)-1-methyl-1H-pyrazolo[3,4-d]pyrimidin-3-yl)amino)-N-(2-(3,3-dimethylpyrrolidin-1-yl)ethyl)-6-methylnicotinamide]	> 7500	60.7	1.5	13.3
